The results in this text go back to ChEMBL document CHEMBL1201862, “PubChem BioAssay data set” (2004).

The target in data set [1] is Glucose-6-phosphate 1-dehydrogenase (Homo sapiens, UniProt P11413). Kind of data set: human G6PD enzyme inhibitors, dose response, selectivity assay for P. falciparum G6PD inhibitor project, biochemical, fluorescence (AID 504792). In kind it is functional.
Data set [2] in a line: inhibitors of HIV Env-driven cell fusion, dose response, cherry-pick (AID 652057). In kind it is functional, cell-based.
A short description of data set [3]: inhibitors of clade B AD8 Env fusion, dose response, cell-based, cherry-pick (AID 652062).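 Note: luciferase signal from cell-cell fusion driven by HIV-1 clade B AD8 Env; potency is for inhibitors of fusion seen as a drop in luminescence.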 In kind it is functional.
The nature of data set [4]: off-target signal loss in HeLa-CEM21 co-culture – HeLa F-luc CTL cells, cherry-picked, counter-screen for HIV-1 Env fusion inhibitor project, dose response (AID 652040).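 Note: potency for signal decrease marking cytotoxic or nonspecific inhibition.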 Format: functional, cell-based. Background: A counterscreen serves to expose hits that act by an unwanted route or on another target.
Data set [5] can be described thus: ZM109 Env clade C HIV-1 fusion inhibitors, dose response, HeLa effector, CEM target cells, luciferase, cherry-pick (AID 652058). In kind it is functional, cell-based.
A further data set deals with Beta-galactosidase (Escherichia coli, UniProt Q8VNN2). Kind of data set: Dose response counterscreen for EBI2 assay utilizing the enzyme, b-galactosidase. In kind it is functional.
Data set [6] has as its target 5-hydroxytryptamine receptor 2A (Mus musculus, UniProt P35363). In kind it is functional, cell-based.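 Note: CHO-K1 cells with tagged receptor and beta-arrestin; agonist potency measured as compound-induced activation of the receptor.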
The target in the next data set is Mu-type opioid receptor (Homo sapiens, UniProt P35372). Format: functional, cell-based.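 Note: U2OS cells with beta-arrestin recruitment to OPRM1 by beta-gal complementation.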
Data set [7] can be described thus: Luminescence Cell-Based Dose Retest to Confirm Inhibitors of Cancer Stem Cells. [Related pubchem assays (depositor defined):AID2717, AID2721]. In kind it is functional. The note with it: Homo sapiens.
The target of a further data set is Genome polyprotein (dengue virus type 2, UniProt P29990). Kind of data set: Dengue-2 NS5 methyltransferase inhibitors, primary screen, biochemical, confirmation dose response (AID 588689). Format: functional.
The target in data set [8] is T1, Small ubiquitin-related modifier 1 (Homo sapiens, UniProt P63165). The data set is described as follows: inhibitors of SUMO1 peptide binding, dose response, biochemical, fluorescence polarization, uHTS hits (AID 624382). Format: functional. The note with it: read-out: IC50_Mean.
Data set [9] has as its target T1, Small ubiquitin-related modifier 1. Kind of data set: inhibitors of SUMO1 partner interactions, dose response, biochemical, FRET (AID 624383). Format: functional. The note with it: read-out: IC50_Mean.
The target in another data set is Cytochrome P450 3A4 (Homo sapiens, UniProt P08684).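 Note: CYP3A4 tested as one member of a cytochrome P450 panel screen.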
The next data set addresses Cytochrome P450 2C9 (Homo sapiens, UniProt P11712).
The target in another data set is Cytochrome P450 2C19 (Homo sapiens, UniProt P33261). Kind of data set: Cytochrome panel assay with activity outcomes. Panel member name: p450-cyp2c19 Compounds with AC50 equal or less than 10 uM are considered active. In kind it is functional.
Data set [10] addresses T2, Low molecular weight phosphotyrosine protein phosphatase (Homo sapiens, UniProt P24666).
T2 sequence (P24666 whole entry): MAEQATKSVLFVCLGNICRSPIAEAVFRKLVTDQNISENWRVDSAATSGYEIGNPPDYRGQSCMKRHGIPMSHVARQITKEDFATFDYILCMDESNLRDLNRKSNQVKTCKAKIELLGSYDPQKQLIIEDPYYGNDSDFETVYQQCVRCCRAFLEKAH
Format: functional. To be noted: read-out: IC50_Mean.

Data set [11] in a line: T. cruzi growth inhibition in host cells, dose response, cell-based, plate reader, dry powder, set 2 (AID 652275). In kind it is functional.
The target in data set [12] is T3, Rac GTPase-activating protein 1 (Homo sapiens, UniProt Q9H0H5).
T3 sequence (Q9H0H5 whole entry): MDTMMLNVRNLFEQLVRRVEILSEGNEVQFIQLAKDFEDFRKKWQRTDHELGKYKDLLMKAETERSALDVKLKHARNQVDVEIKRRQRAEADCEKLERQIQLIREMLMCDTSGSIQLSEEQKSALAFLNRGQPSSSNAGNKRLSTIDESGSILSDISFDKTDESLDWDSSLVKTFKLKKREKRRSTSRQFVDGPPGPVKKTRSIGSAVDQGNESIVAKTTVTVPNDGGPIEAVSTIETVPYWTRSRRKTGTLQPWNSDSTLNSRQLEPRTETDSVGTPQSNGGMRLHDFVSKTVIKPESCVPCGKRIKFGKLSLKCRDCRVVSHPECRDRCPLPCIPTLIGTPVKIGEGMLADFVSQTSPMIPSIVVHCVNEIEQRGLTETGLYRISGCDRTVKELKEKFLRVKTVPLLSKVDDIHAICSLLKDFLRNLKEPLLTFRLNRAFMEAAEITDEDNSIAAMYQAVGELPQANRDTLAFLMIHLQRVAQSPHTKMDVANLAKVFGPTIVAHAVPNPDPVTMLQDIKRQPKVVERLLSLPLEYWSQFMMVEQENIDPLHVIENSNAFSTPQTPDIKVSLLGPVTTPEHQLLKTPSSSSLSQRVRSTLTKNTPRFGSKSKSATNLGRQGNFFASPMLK
Kind of data set: MgcRacGAP GTPase-activating activity inhibitors, confirmation, biochemical, ADP Hunter fluorescence, primary and confirmatory (AID 624330). Format: functional.

The nature of data set [13]: microbe, parasite or virus in culture. Format: functional. The note with it: Mycobacterium tuberculosis.
In data set [14] the target is T4, Ubiquitin-conjugating enzyme E2 N (Homo sapiens, UniProt P61088).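 Note: Dose-response confirmation in a TR-FRET assay detecting UBC13-driven polyubiquitin chain formation, inhibition measured.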
T4 sequence (P61088 whole entry): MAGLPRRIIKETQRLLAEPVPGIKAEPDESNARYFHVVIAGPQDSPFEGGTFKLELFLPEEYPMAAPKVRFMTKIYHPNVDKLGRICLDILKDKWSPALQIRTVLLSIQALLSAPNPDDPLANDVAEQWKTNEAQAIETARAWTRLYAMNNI
Format: functional.

Structures are written as SMILES. Active and inactive are the calls of the source.

Chain of 5-hydroxytryptamine receptor 2A (P35363 whole entry): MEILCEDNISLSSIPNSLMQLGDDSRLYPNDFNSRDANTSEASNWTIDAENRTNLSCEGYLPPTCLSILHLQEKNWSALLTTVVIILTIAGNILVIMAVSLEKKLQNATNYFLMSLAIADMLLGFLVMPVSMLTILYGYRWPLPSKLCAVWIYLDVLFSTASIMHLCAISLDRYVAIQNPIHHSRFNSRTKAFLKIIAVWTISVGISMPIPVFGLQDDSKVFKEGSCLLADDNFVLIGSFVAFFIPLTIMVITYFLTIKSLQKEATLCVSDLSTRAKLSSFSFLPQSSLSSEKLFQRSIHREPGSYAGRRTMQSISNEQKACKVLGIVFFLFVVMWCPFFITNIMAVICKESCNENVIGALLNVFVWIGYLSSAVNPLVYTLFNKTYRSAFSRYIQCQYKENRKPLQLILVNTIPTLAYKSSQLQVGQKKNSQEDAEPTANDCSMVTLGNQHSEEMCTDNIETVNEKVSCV
Chain of Beta-galactosidase (Q8VNN2 whole entry): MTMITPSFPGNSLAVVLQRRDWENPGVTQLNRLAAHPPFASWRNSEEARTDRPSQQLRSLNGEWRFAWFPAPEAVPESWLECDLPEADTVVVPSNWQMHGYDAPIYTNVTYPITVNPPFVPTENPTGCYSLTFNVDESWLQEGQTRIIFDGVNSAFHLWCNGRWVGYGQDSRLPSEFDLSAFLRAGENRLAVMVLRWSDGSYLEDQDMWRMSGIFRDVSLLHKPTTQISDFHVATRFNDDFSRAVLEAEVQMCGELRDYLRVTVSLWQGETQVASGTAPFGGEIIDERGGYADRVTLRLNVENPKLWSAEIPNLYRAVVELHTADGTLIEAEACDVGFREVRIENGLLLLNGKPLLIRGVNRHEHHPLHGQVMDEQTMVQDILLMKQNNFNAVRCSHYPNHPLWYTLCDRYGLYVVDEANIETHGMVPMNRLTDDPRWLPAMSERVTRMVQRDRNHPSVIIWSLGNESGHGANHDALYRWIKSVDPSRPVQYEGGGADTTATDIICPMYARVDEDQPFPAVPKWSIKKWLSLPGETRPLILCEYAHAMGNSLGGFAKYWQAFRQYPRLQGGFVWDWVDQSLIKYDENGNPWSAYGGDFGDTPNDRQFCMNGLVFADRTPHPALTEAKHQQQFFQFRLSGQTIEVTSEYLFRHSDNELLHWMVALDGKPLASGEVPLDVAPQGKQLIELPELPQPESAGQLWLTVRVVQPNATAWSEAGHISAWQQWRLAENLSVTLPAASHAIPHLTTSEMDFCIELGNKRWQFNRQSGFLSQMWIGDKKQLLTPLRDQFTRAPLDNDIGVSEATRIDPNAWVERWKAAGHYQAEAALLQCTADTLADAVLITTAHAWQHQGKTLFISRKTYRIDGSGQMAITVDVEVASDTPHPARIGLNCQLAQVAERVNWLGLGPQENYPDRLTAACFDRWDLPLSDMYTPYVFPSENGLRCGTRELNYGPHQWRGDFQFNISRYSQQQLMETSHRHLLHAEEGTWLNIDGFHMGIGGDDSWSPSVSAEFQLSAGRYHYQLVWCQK
Chain of Mu-type opioid receptor (P35372 whole entry): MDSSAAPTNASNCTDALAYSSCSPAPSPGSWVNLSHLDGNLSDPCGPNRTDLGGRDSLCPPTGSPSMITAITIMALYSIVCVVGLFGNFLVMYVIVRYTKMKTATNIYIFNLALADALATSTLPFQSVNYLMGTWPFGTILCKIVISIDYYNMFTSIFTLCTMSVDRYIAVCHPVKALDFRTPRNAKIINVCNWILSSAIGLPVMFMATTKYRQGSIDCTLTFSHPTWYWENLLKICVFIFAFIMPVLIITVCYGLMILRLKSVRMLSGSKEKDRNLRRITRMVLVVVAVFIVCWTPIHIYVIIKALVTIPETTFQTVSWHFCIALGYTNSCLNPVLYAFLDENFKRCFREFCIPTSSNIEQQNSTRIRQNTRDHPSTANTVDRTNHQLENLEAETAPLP
T1 sequence (P63165 whole entry): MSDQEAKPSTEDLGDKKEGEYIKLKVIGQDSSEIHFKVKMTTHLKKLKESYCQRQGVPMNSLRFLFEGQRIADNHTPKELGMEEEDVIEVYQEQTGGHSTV
Chain of Glucose-6-phosphate 1-dehydrogenase (P11413 whole entry, the tested form may be a part): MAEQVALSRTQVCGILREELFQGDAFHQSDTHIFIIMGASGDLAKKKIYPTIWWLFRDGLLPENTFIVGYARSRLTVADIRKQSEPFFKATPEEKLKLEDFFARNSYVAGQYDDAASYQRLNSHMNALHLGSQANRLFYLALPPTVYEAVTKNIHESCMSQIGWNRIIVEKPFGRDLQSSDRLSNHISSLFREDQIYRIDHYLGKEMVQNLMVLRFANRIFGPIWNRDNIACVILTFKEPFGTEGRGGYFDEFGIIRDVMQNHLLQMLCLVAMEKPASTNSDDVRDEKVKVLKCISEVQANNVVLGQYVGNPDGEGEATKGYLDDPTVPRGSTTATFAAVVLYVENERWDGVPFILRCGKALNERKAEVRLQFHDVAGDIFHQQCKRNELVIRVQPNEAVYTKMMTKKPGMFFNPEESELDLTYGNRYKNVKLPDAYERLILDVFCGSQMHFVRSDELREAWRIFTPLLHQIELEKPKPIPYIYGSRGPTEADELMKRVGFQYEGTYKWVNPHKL
Chain of Cytochrome P450 3A4 (P08684 whole entry): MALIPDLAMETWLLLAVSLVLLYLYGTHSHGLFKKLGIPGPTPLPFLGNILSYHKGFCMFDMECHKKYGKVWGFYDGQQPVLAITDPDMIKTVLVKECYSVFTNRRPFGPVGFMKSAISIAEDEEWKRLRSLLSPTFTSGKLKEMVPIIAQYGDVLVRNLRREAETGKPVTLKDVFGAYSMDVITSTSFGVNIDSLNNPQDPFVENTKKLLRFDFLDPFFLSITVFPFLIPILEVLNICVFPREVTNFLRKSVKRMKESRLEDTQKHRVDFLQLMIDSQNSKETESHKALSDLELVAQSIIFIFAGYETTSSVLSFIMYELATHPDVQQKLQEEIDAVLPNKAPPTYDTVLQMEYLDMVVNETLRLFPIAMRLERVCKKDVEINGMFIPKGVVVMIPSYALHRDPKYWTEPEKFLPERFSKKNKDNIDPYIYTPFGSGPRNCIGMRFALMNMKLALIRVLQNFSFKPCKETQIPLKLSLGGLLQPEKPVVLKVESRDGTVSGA
Chain of Cytochrome P450 2C19 (P33261 whole entry): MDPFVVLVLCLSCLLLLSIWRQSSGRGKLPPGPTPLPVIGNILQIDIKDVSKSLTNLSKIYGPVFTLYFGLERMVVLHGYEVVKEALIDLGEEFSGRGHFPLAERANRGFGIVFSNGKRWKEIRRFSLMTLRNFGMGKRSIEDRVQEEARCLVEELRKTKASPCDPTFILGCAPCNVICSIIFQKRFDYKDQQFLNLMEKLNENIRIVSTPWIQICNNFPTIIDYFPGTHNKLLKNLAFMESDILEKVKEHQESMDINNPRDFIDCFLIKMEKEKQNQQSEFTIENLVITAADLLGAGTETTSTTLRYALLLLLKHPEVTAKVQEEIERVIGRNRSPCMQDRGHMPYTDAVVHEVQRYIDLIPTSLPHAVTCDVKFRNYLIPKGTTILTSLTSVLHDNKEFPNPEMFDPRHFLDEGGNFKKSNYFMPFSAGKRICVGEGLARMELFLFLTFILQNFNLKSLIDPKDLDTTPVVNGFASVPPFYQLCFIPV
Chain of Genome polyprotein (P29990 2492-3391 limits assumed): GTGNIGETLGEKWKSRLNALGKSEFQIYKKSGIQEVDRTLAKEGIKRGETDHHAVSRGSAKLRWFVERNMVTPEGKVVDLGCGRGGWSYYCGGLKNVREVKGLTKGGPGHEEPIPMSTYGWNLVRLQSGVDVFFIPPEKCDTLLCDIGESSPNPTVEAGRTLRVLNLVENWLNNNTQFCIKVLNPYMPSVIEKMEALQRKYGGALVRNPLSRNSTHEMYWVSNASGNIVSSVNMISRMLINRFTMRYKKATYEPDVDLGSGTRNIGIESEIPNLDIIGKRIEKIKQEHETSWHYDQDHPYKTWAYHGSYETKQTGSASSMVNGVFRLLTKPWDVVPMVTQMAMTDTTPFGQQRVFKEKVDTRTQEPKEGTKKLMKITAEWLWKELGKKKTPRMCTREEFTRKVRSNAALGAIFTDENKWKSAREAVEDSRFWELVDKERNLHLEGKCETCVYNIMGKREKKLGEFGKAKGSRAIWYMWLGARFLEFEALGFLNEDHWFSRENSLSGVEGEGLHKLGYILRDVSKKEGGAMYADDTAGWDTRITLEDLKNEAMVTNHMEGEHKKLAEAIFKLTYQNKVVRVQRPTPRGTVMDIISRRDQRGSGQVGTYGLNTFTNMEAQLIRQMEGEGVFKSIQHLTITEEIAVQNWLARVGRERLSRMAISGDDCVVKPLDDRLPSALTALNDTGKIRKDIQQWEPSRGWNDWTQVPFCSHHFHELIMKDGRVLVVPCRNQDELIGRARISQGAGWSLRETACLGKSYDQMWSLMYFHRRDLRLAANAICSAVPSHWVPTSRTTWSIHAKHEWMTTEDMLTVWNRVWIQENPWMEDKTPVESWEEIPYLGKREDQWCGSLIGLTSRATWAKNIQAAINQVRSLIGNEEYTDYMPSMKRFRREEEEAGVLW
Chain of Cytochrome P450 2C9 (P11712 whole entry): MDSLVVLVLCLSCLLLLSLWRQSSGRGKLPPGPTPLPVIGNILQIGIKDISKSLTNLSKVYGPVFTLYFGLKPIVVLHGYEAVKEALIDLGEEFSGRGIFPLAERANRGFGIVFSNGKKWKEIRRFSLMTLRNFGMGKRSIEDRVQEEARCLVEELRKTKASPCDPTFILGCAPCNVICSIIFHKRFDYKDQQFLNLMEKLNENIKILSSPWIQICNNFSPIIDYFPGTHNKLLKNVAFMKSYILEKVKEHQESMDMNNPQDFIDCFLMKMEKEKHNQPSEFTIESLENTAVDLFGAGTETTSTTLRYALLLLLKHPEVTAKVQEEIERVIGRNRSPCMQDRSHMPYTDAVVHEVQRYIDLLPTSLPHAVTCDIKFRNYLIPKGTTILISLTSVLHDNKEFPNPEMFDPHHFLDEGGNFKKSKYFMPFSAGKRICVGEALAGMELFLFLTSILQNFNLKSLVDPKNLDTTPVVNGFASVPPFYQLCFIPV

On to `CCc1ccccc1N1CSC2=C(C#N)C(c3ccccc3F)CC(=O)N2C1` (stereo unspecified), for which, in data set [1], the IC50 is > 80 µM (inactive).
On the same count and under the same terms, for `COc1cccc(C(=O)Nc2nnc(S(=O)(=O)N(C)Cc3ccccc3)s2)c1` the value was > 80 µM (inactive).
In the case of `CCN(CC)S(=O)(=O)c1cc(NC(=O)C(=O)c2c(-c3ccccc3)cc3ccccn23)ccc1C`, the AC50 in data set [2] was 10.6 µM (active); in data set [3] it was 17.1 µM (active); in data set [4], 9.48 µM (active); in data set [5], 24.9 µM (active).
For the molecule `CCOC(=O)N1CCN(C(=O)c2cc3cc(C)ccc3[nH]2)CC1`, on Beta-galactosidase, the IC50 is > 80 µM (inactive).
Regarding `C#CCCc1cscc1/C=[N+](\[O-])c1ccc(C(=O)OCC)cc1`, the IC50 in [1] was 29.7 µM (inactive).
In the case of `Cc1cc(C)c(O)c(-c2[nH]nc3c2C(c2cccc(O)c2)N(Cc2ccco2)C3=O)c1` (stereo unspecified), the EC50 in [6] is 8.01 µM (active); on Mu-type opioid receptor, 92.5 µM (inactive). In addition, the AC50 in data set [7] is 5.49 µM (active).
Consider `CC(=O)N1CCc2cc(C(=O)CN3CCN(c4ccccn4)CC3)ccc21`, for which the figures for the EC50 (in data set [6]; on Mu-type opioid receptor) were 0.257 µM (active) and 92.5 µM (inactive), respectively.
For `O=C(O)c1cccc(-n2cccc2/C=C/[N+](=O)[O-])c1`, the IC50 is 53.6 µM (active) at Genome polyprotein, > 66.6 µM (inactive) in data set [8] and 26.5 µM (inactive) in data set [9].
As to `c1ccc2c(N3CCCCC3)ncnc2c1`, the half-maximal activity concentration (AC50) in data set [2] is 31.5 µM (active); in data set [3] it was 53.9 µM (active); in data set [4], 56.2 µM (active); in [5], 5.37 µM (active).
For the molecule `CCOC(=O)c1c(C)nc2sc3c(=O)n(-c4ccc(C(C)=O)cc4)nnc3c2c1-c1ccc(Cl)cc1`, the values for the half-maximal activity concentration (AC50) result at Cytochrome P450 3A4 and on Cytochrome P450 2C9 were “inconclusive” and 2.82 µM (inconclusive), respectively.
For `O=C(CN(Cc1ccccc1)S(=O)(=O)c1ccc(F)cc1)NCCC1=CCCCC1`, the concentration at half-maximal activity (AC50) in [2] was 2.55 µM (active); in data set [3] it was 38 µM (active); in data set [4], 17.1 µM (active); in [5], 6.77 µM (active).
Turning to `O=C(O)CC(c1cccc2ccccc12)n1cccc1` (stereo unspecified), the AC50 result on Cytochrome P450 3A4 is “inconclusive”; at Cytochrome P450 2C19, 28.2 µM (inconclusive).
Regarding `CC(C)N1CCOC(c2ccc(O)c(O)c2)C1` (stereo unspecified), the EC50 is 1.68 µM (active) in [6] and 92.3 µM (inactive) at Mu-type opioid receptor.
For `CC(=Cc1ccccc1)C=C1SC(=S)N(CCCC(=O)Nc2ccc(C(=O)O)cc2)C1=O`, the IC50 in data set [10] was 80 µM (inactive).
Regarding `CCC(c1nnnn1-c1c(C)cccc1C)N1CCN(C/C=C/c2ccccc2)CC1` (stereo unspecified), the EC50 in data set [6] was 0.362 µM (active); on Mu-type opioid receptor it was 92.6 µM (inactive).
With `c1ccc(OCCNc2nc(NCC3CC3)nc3cc(-c4ccccc4)sc23)cc1`, the IC50 on Beta-galactosidase is 104 µM (inactive).
Take `CN(C)CC#Cc1cccc(-c2nc(C(=O)NCc3ccc4c(c3)OCO4)cc3c2[C@@H](CCO)N([S+]([O-])C(C)(C)C)C3)c1` (stereo partly specified): in data set [11], the AC50 is 0.0993 µM (active).
As to `O=C(COc1ccc(Cl)cc1)N1CCN(Cc2ccc3c(c2)OCO3)CC1` [FIPEXIDE], on Beta-galactosidase, the IC50 is > 80 µM (inactive).
For `C=C1c2c(Cl)ccc(O)c2C(=O)C2=C(O)[C@]3(O)C(=O)C(C(N)=O)=C(O)[C@@H](N(C)C)[C@@H]3[C@@H](O)[C@H]12.O=C(O)c1cc(S(=O)(=O)O)ccc1O` [MECLOCYCLINE SULFOSALICYLATE], the IC50 was 8.79 µM (active) in data set [8], 39.7 µM (inactive) in [9], 63 µM (active) in data set [12] and > 20 µM (inactive) in data set [14]. Further, the CC50 in data set [13] was 16.4 µM (active).

For orientation: AC50 means the concentration giving half of the maximal activity seen. One may read the EC50 as the concentration at which the effect is half-maximal.
